Measurements published in ChEMBL document CHEMBL3991601, “The target landscape of clinical kinase drugs” (Science, 2017).
The source made the active and inactive calls.

How the values were obtained:
[1] = biological target: Dual specificity protein kinase CLK3 (Homo sapiens, UniProt P49761); format: subcellular, K-562, COLO 205, SK-N-BE(2) and MV-4-11, Cell lysate; settings: read-out: Kd apparent
[2] = biological target: Epidermal growth factor receptor (Homo sapiens, UniProt P00533)
[3] = biological target: Cell division cycle 7-related protein kinase (Homo sapiens, UniProt O00311)
[4] = biological target: T1, Protein kinase C zeta type (Homo sapiens, UniProt Q05513)
T1 sequence (Q05513 whole entry): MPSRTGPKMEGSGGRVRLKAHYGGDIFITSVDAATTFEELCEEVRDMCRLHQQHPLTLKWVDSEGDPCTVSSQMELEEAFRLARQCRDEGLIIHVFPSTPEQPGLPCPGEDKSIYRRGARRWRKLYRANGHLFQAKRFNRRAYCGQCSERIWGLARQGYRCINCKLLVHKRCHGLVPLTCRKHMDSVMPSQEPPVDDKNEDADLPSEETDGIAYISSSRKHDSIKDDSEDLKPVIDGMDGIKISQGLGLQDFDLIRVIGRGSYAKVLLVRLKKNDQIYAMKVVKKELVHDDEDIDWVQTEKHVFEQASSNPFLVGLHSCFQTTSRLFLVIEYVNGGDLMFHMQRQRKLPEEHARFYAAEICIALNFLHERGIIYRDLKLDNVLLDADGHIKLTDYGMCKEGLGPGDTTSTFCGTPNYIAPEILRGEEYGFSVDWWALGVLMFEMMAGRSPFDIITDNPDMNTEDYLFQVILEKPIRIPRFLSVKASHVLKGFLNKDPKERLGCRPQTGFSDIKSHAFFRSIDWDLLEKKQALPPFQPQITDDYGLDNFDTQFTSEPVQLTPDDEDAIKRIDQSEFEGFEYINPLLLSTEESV

[5] = biological target: Cyclin-dependent kinase 17 (Homo sapiens, UniProt Q00537)
[6] = biological target: Dual specificity testis-specific protein kinase 1 (Homo sapiens, UniProt Q15569)
Ephrin type-A receptor 1 = biological target: T2, Ephrin type-A receptor 1 (Homo sapiens, UniProt P21709)
T2 sequence (P21709 whole entry): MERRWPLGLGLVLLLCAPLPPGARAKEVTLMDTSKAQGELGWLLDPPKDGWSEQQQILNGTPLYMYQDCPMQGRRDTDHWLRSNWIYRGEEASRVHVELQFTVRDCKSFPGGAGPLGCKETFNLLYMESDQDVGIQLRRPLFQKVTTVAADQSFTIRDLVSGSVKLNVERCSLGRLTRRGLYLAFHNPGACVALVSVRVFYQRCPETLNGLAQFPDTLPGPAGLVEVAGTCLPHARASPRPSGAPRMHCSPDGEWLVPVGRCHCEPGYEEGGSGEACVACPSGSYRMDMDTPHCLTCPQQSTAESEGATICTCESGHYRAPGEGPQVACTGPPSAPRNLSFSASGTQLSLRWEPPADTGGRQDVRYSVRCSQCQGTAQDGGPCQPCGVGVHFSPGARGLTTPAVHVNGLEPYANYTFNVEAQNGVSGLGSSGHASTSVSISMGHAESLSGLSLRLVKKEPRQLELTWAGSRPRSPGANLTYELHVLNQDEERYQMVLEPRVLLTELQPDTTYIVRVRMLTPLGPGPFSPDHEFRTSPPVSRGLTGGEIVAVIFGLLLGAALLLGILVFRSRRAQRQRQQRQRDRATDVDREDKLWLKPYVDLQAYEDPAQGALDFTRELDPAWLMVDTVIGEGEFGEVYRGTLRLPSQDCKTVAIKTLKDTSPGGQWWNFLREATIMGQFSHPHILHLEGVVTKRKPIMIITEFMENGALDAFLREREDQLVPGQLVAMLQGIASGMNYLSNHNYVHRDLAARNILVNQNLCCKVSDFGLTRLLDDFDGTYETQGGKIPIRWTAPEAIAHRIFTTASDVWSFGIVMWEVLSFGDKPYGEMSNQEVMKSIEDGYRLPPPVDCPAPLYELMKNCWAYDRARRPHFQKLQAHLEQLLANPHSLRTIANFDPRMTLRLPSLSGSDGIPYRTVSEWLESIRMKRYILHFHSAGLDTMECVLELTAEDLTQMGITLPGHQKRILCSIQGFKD

Focal adhesion kinase 1 = Focal adhesion kinase 1 (Homo sapiens, UniProt Q05397)
[7] = biological target: T3, Receptor-type tyrosine-protein kinase FLT3 (Homo sapiens, UniProt P36888)
T3 sequence (P36888 whole entry): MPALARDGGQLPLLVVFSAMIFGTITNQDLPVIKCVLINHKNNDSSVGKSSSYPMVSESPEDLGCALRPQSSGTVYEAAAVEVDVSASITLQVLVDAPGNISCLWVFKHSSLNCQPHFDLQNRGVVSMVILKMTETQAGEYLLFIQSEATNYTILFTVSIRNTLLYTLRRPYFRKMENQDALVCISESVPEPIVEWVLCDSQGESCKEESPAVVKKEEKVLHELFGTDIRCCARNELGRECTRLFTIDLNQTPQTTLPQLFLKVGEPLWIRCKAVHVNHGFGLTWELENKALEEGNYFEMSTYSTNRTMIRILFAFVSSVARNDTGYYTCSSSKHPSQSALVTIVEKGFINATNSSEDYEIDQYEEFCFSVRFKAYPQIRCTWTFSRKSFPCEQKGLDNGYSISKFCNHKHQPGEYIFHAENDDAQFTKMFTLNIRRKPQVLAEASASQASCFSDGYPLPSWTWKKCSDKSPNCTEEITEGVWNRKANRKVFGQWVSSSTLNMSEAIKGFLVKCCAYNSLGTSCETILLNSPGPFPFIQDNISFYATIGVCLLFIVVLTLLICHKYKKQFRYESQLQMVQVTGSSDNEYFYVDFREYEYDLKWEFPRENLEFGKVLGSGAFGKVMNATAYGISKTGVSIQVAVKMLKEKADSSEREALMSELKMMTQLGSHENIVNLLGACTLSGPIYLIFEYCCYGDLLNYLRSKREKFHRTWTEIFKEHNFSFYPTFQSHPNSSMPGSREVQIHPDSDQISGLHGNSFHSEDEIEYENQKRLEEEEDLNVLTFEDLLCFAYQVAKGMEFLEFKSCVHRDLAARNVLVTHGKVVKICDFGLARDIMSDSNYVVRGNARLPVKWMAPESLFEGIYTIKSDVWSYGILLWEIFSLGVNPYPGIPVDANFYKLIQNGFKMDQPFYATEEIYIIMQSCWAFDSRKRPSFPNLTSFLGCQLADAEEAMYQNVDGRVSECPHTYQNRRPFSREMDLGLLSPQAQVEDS

[8] = biological target: Dual specificity protein kinase CLK4 (Homo sapiens, UniProt Q9HAZ1)
[9] = biological target: MAP kinase-activated protein kinase 3 (Homo sapiens, UniProt Q16644)
Note: in the data inactive means no Kd found up to 30 µM.

Sequence of Epidermal growth factor receptor (P00533 whole entry): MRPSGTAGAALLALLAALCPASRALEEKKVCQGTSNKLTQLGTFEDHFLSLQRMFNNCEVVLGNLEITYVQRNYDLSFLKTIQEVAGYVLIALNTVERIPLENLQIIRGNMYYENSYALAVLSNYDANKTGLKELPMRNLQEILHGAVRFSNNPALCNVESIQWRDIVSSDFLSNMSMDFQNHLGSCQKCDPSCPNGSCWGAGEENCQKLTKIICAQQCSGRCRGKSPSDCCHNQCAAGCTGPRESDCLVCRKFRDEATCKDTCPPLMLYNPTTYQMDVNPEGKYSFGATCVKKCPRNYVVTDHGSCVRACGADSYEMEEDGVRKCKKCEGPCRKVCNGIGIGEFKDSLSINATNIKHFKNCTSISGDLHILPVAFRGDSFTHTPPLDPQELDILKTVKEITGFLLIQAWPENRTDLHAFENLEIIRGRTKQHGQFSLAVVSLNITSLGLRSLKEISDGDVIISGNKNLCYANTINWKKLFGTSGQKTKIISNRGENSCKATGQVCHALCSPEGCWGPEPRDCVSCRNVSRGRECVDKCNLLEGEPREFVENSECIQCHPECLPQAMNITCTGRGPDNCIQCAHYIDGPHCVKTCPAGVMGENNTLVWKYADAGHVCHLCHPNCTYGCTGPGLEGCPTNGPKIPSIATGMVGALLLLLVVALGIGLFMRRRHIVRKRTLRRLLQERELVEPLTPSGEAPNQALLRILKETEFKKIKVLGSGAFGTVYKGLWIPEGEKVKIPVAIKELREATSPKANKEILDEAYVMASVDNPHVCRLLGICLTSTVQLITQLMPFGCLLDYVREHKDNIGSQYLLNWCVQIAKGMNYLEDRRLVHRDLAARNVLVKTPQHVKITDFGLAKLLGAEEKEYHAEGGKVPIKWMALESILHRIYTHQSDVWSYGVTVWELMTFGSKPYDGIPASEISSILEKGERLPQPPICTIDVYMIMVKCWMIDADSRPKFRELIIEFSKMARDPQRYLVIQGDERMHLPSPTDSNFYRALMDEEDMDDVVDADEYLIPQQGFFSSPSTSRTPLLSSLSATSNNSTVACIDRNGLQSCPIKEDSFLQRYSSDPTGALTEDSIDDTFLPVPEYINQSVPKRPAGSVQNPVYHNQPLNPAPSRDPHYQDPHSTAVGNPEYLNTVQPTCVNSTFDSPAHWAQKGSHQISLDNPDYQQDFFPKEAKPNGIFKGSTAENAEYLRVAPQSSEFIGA
Sequence of Dual specificity protein kinase CLK4 (Q9HAZ1 whole entry): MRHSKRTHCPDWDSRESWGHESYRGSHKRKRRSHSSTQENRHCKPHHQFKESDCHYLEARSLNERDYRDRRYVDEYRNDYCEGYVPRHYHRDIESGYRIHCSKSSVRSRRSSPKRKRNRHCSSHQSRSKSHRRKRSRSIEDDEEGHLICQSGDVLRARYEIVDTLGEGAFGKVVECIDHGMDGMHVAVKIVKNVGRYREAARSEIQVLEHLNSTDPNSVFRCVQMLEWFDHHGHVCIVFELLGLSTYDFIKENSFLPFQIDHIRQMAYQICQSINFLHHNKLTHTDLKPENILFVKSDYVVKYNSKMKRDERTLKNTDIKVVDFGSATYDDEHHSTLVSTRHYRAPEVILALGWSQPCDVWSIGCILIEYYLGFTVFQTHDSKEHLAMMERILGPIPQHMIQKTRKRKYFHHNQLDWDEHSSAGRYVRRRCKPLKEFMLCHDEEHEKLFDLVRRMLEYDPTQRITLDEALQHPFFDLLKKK
Sequence of Dual specificity protein kinase CLK3 (P49761 whole entry): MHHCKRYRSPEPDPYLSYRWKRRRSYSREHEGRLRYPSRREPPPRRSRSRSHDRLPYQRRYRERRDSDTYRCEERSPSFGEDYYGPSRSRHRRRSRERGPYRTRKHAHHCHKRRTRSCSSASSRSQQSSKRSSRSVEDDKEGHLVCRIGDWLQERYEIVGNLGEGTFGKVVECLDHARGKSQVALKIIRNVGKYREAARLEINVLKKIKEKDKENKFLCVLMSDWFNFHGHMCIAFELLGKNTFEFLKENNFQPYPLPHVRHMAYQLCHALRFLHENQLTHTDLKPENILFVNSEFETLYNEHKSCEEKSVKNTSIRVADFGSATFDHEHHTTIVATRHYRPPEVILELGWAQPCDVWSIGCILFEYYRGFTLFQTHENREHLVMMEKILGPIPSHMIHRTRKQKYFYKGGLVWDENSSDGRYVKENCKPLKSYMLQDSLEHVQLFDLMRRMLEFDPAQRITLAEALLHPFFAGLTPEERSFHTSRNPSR
Sequence of Focal adhesion kinase 1 (Q05397 whole entry): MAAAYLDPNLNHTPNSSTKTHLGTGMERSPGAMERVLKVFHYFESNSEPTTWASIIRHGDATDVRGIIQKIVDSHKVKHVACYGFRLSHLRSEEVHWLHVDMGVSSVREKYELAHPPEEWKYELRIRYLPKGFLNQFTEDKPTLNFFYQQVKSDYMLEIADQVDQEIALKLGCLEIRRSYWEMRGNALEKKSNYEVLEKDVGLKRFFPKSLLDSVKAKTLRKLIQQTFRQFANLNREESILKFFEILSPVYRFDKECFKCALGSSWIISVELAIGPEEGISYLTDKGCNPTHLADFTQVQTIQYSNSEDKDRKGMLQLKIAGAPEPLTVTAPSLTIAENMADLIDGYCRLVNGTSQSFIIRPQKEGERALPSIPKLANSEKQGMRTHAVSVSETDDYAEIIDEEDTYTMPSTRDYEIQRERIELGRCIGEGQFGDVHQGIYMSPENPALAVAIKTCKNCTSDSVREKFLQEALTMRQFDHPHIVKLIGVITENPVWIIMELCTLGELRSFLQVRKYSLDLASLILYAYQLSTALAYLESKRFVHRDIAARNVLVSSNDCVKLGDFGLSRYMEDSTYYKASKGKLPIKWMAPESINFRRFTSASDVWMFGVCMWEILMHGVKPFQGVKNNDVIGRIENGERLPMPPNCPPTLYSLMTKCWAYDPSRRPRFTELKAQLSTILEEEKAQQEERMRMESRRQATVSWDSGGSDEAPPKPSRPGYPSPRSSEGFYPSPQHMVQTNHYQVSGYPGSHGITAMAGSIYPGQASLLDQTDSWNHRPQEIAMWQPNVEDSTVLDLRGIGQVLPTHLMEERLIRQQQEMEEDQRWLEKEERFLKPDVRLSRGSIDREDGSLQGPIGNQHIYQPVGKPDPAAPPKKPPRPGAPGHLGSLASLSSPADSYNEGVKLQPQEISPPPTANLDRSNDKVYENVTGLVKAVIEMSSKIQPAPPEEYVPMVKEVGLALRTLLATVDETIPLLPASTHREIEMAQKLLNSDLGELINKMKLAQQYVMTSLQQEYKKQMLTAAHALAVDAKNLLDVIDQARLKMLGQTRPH
Sequence of Cyclin-dependent kinase 17 (Q00537 whole entry): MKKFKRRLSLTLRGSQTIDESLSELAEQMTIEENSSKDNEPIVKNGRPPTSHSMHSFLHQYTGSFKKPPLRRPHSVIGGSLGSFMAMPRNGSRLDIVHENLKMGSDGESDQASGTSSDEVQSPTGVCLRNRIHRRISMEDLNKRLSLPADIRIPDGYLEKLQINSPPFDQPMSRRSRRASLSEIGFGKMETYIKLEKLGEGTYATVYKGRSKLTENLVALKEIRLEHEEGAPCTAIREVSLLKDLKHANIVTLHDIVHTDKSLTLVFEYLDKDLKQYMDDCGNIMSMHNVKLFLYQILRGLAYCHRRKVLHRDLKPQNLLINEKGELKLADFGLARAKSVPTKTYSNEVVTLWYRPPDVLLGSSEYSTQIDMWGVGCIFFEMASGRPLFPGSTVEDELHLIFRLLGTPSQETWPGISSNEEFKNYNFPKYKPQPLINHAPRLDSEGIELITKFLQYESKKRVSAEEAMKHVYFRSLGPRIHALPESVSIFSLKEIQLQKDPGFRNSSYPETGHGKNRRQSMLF
Sequence of Dual specificity testis-specific protein kinase 1 (Q15569 whole entry): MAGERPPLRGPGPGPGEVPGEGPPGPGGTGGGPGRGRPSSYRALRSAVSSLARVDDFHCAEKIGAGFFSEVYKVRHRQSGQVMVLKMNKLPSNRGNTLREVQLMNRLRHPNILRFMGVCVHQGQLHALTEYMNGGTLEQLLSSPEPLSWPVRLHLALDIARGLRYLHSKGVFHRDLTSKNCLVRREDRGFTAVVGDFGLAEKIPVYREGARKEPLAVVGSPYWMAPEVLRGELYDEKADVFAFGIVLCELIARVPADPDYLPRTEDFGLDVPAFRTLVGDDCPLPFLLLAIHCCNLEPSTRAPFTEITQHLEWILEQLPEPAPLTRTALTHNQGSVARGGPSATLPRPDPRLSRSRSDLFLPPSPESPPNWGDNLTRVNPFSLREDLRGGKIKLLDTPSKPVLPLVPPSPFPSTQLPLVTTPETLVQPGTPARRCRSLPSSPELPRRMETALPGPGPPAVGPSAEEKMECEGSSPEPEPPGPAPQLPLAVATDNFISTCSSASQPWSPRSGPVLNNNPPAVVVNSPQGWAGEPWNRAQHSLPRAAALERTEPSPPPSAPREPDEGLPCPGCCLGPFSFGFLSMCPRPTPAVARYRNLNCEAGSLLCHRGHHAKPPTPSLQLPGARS
Sequence of MAP kinase-activated protein kinase 3 (Q16644 whole entry): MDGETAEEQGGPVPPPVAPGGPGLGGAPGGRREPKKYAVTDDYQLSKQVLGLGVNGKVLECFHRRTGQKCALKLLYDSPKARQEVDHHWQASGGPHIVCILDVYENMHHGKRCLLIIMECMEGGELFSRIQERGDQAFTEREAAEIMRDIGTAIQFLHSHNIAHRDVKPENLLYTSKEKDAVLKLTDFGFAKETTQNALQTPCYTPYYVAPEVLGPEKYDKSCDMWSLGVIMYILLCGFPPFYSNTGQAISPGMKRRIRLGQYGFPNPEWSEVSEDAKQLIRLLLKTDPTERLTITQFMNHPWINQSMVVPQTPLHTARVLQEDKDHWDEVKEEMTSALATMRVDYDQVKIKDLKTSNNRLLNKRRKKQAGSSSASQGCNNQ

C=CCn1c(=O)c2cnc(Nc3ccc(N4CCN(C)CC4)cc3)nc2n1-c1cccc(C(C)(C)O)n1 [ADAVOSERTIB]
Kd [1]: > 30 µM (inactive) | Kd [2]: > 30 µM (inactive) | Kd [3]: > 30 µM (inactive) | Kd [4]: > 30 µM (inactive) | Kd [5]: > 30 µM (inactive) | Kd [6]: > 30 µM (inactive) | Kd (Ephrin type-A receptor 1): > 30 µM (inactive)

COc1ccc2c(OCc3nnc4ccc(-c5ccccc5)nn34)ccnc2c1 [AMG-208]
Kd [1]: > 30 µM (inactive) | Kd [2]: > 30 µM (inactive) | Kd (Focal adhesion kinase 1): > 30 µM (inactive) | Kd [7]: > 30 µM (inactive) | Kd [8]: > 30 µM (inactive) | Kd [5]: > 30 µM (inactive) | Kd [6]: > 30 µM (inactive) | Kd [9]: > 30 µM (inactive) | Kd (Ephrin type-A receptor 1): > 30 µM (inactive)

CCN(CCCOc1ccc2c(Nc3cc(CC(=O)Nc4cccc(F)c4)n[nH]3)ncnc2c1)CCOP(=O)(O)O [BARASERTIB]
Kd [1]: > 30 µM (inactive) | Kd [5]: > 30 µM (inactive) | Kd [6]: > 30 µM (inactive) | Kd [9]: > 30 µM (inactive) | Kd (Ephrin type-A receptor 1): > 30 µM (inactive)

COc1cccc(Nc2ncnn3ccc(CN4CC[C@@H](N)[C@H](O)C4)c23)c1 [BMS-690514]
Kd [2]: 0.225 µM (active) | Kd (Focal adhesion kinase 1): > 30 µM (inactive) | Kd [4]: > 30 µM (inactive) | Kd [6]: > 30 µM (inactive) | Kd (Ephrin type-A receptor 1): > 30 µM (inactive)

COc1cc2c(Oc3ccc4[nH]c(C)cc4c3F)ncnc2cc1OCCCN1CCCC1 [CEDIRANIB]
Kd [3]: > 30 µM (inactive) | Kd [4]: > 30 µM (inactive)

CC1(COc2ccc3c(c2)ncn3-c2ccc3cccc(N4CCC(N)CC4)c3n2)COC1 [CRENOLANIB]
Kd [1]: > 30 µM (inactive) | Kd [2]: > 30 µM (inactive) | Kd (Focal adhesion kinase 1): > 30 µM (inactive) | Kd [3]: > 30 µM (inactive) | Kd [4]: > 30 µM (inactive) | Kd [5]: > 30 µM (inactive) | Kd [6]: > 30 µM (inactive) | Kd (Ephrin type-A receptor 1): > 30 µM (inactive)

COc1cc2ncnc(Nc3ccc(F)c(Cl)c3)c2cc1NC(=O)/C=C/CN1CCCCC1 [DACOMITINIB ANHYDROUS]
Kd [1]: > 30 µM (inactive) | Kd (Focal adhesion kinase 1): > 30 µM (inactive) | Kd [7]: > 30 µM (inactive) | Kd [3]: > 30 µM (inactive) | Kd [5]: > 30 µM (inactive) | Kd [9]: > 30 µM (inactive)

Cc1ccc(C(=O)Nc2ccc(Oc3cc4cnn(C)c4cc3-c3cn[nH]c3)c(F)c2)c(=O)n1-c1ccc(F)cc1 [MERESTINIB]
Kd [1]: > 30 µM (inactive) | Kd [2]: > 30 µM (inactive) | Kd (Focal adhesion kinase 1): > 30 µM (inactive) | Kd [7]: 0.309 µM (active) | Kd [3]: > 30 µM (inactive) | Kd [8]: > 30 µM (inactive) | Kd [5]: > 30 µM (inactive) | Kd [6]: > 30 µM (inactive) | Kd [9]: > 30 µM (inactive) | Kd (Ephrin type-A receptor 1): > 30 µM (inactive)

O=C(NOC[C@H](O)CO)c1ccc(F)c(F)c1Nc1ccc(I)cc1F [MIRDAMETINIB]
Kd [1]: > 30 µM (inactive) | Kd [2]: > 30 µM (inactive) | Kd (Focal adhesion kinase 1): > 30 µM (inactive) | Kd [7]: > 30 µM (inactive) | Kd [8]: > 30 µM (inactive) | Kd [5]: > 30 µM (inactive) | Kd [6]: > 30 µM (inactive) | Kd [9]: > 30 µM (inactive) | Kd (Ephrin type-A receptor 1): > 30 µM (inactive)

CC1(C)CNc2cc(NC(=O)c3cccnc3NCc3ccncc3)ccc21 [MOTESANIB]
Kd [3]: > 30 µM (inactive) | Kd [4]: > 30 µM (inactive)

C=CC(=O)Nc1cc(Nc2nccc(-c3cn(C)c4ccccc34)n2)c(OC)cc1N(C)CCN(C)C [OSIMERTINIB]
Kd [1]: > 30 µM (inactive) | Kd (Focal adhesion kinase 1): > 30 µM (inactive) | Kd [7]: > 30 µM (inactive) | Kd [8]: > 30 µM (inactive) | Kd [5]: > 30 µM (inactive) | Kd [9]: > 30 µM (inactive) | Kd (Ephrin type-A receptor 1): > 30 µM (inactive)

COc1cc(F)c(F)c(Nc2ccc(I)cc2F)c1NS(=O)(=O)C1(C[C@H](O)CO)CC1 [REFAMETINIB]
Kd [2]: > 30 µM (inactive) | Kd (Focal adhesion kinase 1): > 30 µM (inactive) | Kd [7]: > 30 µM (inactive) | Kd [4]: > 30 µM (inactive) | Kd [8]: > 30 µM (inactive) | Kd [5]: > 30 µM (inactive) | Kd [6]: > 30 µM (inactive) | Kd (Ephrin type-A receptor 1): > 30 µM (inactive)

Cn1cnc2c(F)c(Nc3ccc(Br)cc3Cl)c(C(=O)NOCCO)cc21 [SELUMETINIB]
Kd [3]: > 30 µM (inactive) | Kd [4]: > 30 µM (inactive)

O=C(O)c1ccc2c(c1)nc(Nc1cccc(Cl)c1)c1ccncc12 [SILMITASERTIB]
Kd [1]: 0.01 µM (active) | Kd [2]: > 30 µM (inactive) | Kd (Focal adhesion kinase 1): > 30 µM (inactive) | Kd [8]: > 30 µM (inactive) | Kd [5]: > 30 µM (inactive) | Kd [6]: > 30 µM (inactive) | Kd [9]: 0.026 µM (active)

Cn1c(=O)c(F)c(Nc2ccc(I)cc2F)c2c(=O)n(C[C@@H](O)CO)cnc21 [TAK-733]
Kd [1]: > 30 µM (inactive) | Kd [2]: > 30 µM (inactive) | Kd (Focal adhesion kinase 1): > 30 µM (inactive) | Kd [7]: > 30 µM (inactive) | Kd [5]: > 30 µM (inactive) | Kd [6]: > 30 µM (inactive) | Kd [9]: > 30 µM (inactive) | Kd (Ephrin type-A receptor 1): > 30 µM (inactive)

C[C@@H]1COC(Nc2ccc3ncnc(Nc4ccc(OCc5nccs5)c(Cl)c4)c3c2)=N1 [VARLITINIB]
Kd [2]: 0.005 µM (active) | Kd (Focal adhesion kinase 1): > 30 µM (inactive) | Kd [7]: > 30 µM (inactive) | Kd [3]: > 30 µM (inactive) | Kd [8]: > 30 µM (inactive) | Kd [5]: > 30 µM (inactive) | Kd [6]: > 30 µM (inactive) | Kd [9]: > 30 µM (inactive) | Kd (Ephrin type-A receptor 1): > 30 µM (inactive)

CNC(=O)c1cccc(-c2ccc3c(N4CCOC[C@@H]4C)nc(N4CCOC[C@@H]4C)nc3n2)c1 [VISTUSERTIB]
Kd [1]: > 30 µM (inactive) | Kd [2]: > 30 µM (inactive) | Kd (Focal adhesion kinase 1): > 30 µM (inactive) | Kd [7]: > 30 µM (inactive) | Kd [3]: > 30 µM (inactive) | Kd [8]: > 30 µM (inactive) | Kd [5]: > 30 µM (inactive) | Kd [6]: > 30 µM (inactive) | Kd [9]: > 30 µM (inactive) | Kd (Ephrin type-A receptor 1): > 30 µM (inactive)
